Results published in patent US20150141460A1, “Anti-inflammatory Compositions” (Cambridge Enterprise Limited, priority 2007, published 2015).
Entries after “also recorded” stand apart in the source; their conditions may differ.

Tests used:
[1] = Pharmacokinetics following a single dose in rat (1 mg/kg iv, 3 mg/kg oral), LC-MS/MS, one-compartment model; format: in vivo; conditions: for bioavailability: 3 mg/kg oral in 1% CMC vs 1 mg/kg iv, one-compartment model, read-out: F (%) oral bioavailability; for Vd: read-out: Vss (L/kg) volume of distribution; for half-life: intravenous dosing 1 mg/kg, read-out: t1/2 (mins) dominant plasma half-life
Description: Compounds were administered as a single dose (either 1 mg/kg bodyweight in 5% DMSO via the intravenous route or 3 mg/kg in 1% carboxymethylcellulose via the oral route) to three adult rats (using different rats for each compound and each route of administration).
Blood was then sampled at various time points (including just prior to dose administration) out to 24 hrs post dose, and the level of the various compounds was assessed using a validated LC-MS/MS assay. Briefly, 3-5 μl of the deproteinised sample was applied to a Waters Atlantis (C18 20×2.1 mm, 3 μm bead size) reverse phase chromatography column equilibrated in 0.1% formic acid in 95:5 water:actetonitrile. Over 3.5 minutes bound material was gradient eluted reaching 0.1% formic acid in 5:95 water:acetonitrile, followed by a step gradient back to 0.1% formic acid in 95:5 water:acetonitrile. The column eluent was then directed to an Applied Biosystems API 4000/3200 QTrap MS/MS mass spectrometer, with a TurboIonspray™ ion source operating in positive ion mode. The interface temperature was set at 650° C., with a 40 ms dwell time for each MRM transition, monitoring the following ions:
The internal standard in each determination was the related compound (S)-3-(2′,2′-dimethyl-propanoylamino)-caprolactam, which was spiked into the sample prior to deproteinization. The lower limit of quantitation (LLOQ) for this assay was 2.4 ng/ml for each compound except (I′), where it was 38.1 ng/ml.
Following LC-MS/MS analysis of each collected sample, the pharmacokinetic disposition of the compound was modelled using Kinetica software, a well known software package for such applications.
Compounds (VI) and (VII) were subject to pharmacokinetic analysis in rat using exactly the same protocols previous applied for compounds (I) through (V) in example 1.
We therefore subjected (VIII) to pharmacokinetic analysis in rat using exactly the same protocols previous applied for compounds (I′) through (VII) in examples 1 and 7.
The isolated (R)-enantiomer of (I) was therefore synthesised (exactly as described herein for the isolated (S)-enantiomer, but replacing the (S)-ornithine starting material with commercially available (R)-ornithine of high stereochemical purity), and the PK properties of this agent, in rat, was determined using the identical methodology described above (see Examples 1, 7 and 8).

[2] = In vitro stability (hydrolysis of C-Cl bond) in physiological saline, LC/MS; format: physicochemical; conditions: after 24 hours at 37° C.
Description: (§1) An obvious concern related to this molecule was the stability of the C—Cl bond. We therefore examined the stability of (VIII) in vitro, both in physiological saline and in a rat liver microsome preparation. Encouragingly, less than 2% of (VIII) had undergone hydrolysis (determined by LC/MS, with dual ion detection of the hydrolysis product (V) and the parent compound (VIII)) even after 24 hours at 37° C. […] As a result, we conclude that compound (VIII) has similar in vitro stability and intrinsic clearance to (I′).

[3] = Stability in rat liver microsome preparation; format: in vitro ADME; conditions: 1 μM, 1 hour at 37° C.
Description: as §1

[4] = Identification of the primary metabolites in pooled rat urine by LC-MS-MS; format: in vivo; conditions: single oral dose 3 mg/kg in 1% CMC, pooled urine over 24 hrs, qualitative, 3 mg/kg
Description: Urine was collected from rats exposed to a single oral dose (3 mg/kg in 1% CMC) of each compound over a 24 hour period in metabolic cages. The pooled urine sample was then subjected to full scan mass spectral analysis, using the same LC-MS conditions as described in example 1 above. Further MS-MS analysis of the product ions was then performed, and likely fragmentations/re-arrangements assigned from the publicly available Metabolite ID database.
For the major metabolites, the assigned structures were confirmed by synthesis of authentic samples, using methods well known in the art, which were subject to LC-MS-MS analysis under the same conditions as the urine samples.
Note that metabolite ID studies provide only qualitative estimates of the relative amounts of the different metabolites present, and separately validated assays with appropriate internal standards would be required to quantitate each metabolite species.

[5] = test system: S. Typhinurium (TA102, TA98 and TA100); test: AMES test, revertant colony formation; format: cell-based; conditions: at 5 mg/ml
Description: The five compounds were subjected to a standard AMES test to assess likely genotoxicity. Three His-auxotroph strains of S. Typhinurium (TA102, TA98 and TA100) were treated with each of the compounds at 5 concentrations (up to 5 mg/ml) in the presence and absence of S9 rat liver microsomal metabolising system. The number of revertant colonies was then determined by plating on trace-His minimal media.

NK2 receptor = biological target: T1, NK2 receptor (Homo sapiens, UniProt P21452); test: CEREP panel binding, NK2 receptor; conditions: estimated from single concentration 10 μM; read-out: estimated ED50 for interaction with the NK2 receptor
T1 construct: purchased CEREP (screening panel)
T1 sequence (P21452 1-398): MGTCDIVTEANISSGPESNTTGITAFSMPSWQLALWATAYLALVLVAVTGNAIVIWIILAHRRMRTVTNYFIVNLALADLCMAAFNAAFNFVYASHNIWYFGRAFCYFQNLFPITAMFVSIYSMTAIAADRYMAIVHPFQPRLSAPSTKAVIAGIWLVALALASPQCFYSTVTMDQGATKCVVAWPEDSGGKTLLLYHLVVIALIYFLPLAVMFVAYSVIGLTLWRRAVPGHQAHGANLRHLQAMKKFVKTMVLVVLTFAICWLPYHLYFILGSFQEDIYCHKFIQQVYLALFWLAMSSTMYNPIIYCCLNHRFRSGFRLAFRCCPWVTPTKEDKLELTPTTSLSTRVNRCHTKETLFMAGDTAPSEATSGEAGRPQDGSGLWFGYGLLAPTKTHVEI
Description: FIGS. 5A-5F show the profile of cross-reactivity for each of the five compounds (I′) to (V) (FIG. 5A: (II); FIG. 5B: (III); FIG. 5C: (V); FIG. 5D: (I′) and FIG. 5E: (IV)) against a panel of 75 different receptors that compose the CEREP panel (see text). The compounds were tested at a single concentration (10 μM), and the inhibition of binding (Y-axis of each histogram) for a known ligand to each of the 75 receptors is reported (−100% therefore represents a 2-fold increase in binding of the specific ligand in the presence of the test compound). All reactions were performed in duplicate, and the bars represent the mean (no estimate of the replicate error is shown to simplify the graphs). Only a 50% or greater inhibition (or stimulation) of binding (representing an ED50 below 10 μM for the interaction of the test compound with the particular receptor) was considered statistically and biologically significant in this screening assay. For the five compounds tested here, only one interaction (that of compound (II) with the NK2 receptor, marked by the arrowhead in FIG. 5A) was considered potentially significant, although even this interaction was weak (estimated ED50 5-10 μM).
Binding to non-target receptors was assessed using similar protocols, exploiting specific radioligands for each receptor which are well known in the art. […]

[6] = plasma, averaged across three rats
[7] = plasma, iv, 1 mg/kg, averaged across three rats

| clearance, fold higher than (I′) [1] | level of analyte in plasma following oral dosing ([1]; all time-points, limit of quantitation ˜2 ng/ml) | AUC(0-t) ([1]; blood, single oral dose 3 mg/kg in 1% CMC, Tables 7-9, read-out: Exposure (min · ng/ml), oral exposure AUC 0-t (converted)) [ng·h/mL] | clearance [1, 7] [mL/min/kg] | hydrolysis to (V) [2] | degradation compared to a no NADPH blank run [3] | Compound | oral bioavailability [1] | bioavailability [1, 6] [%] | Vd [1, 7] [L/kg] | half-life [1, 7] [min] | major metabolites / route of metabolism detected in urine [4] | effect on bacterial lawn growth [5] | IC50 (NK2 receptor) [µM] |
| --- | --- | --- | --- | --- | --- | --- | --- | --- | --- | --- | --- | --- | --- |
| more than 20 fold | below the limit of quantitation | < 1.67 | 62.8 | less than 2% | less than 10% | O=C1NCCCC[C@@H]1NC(=O)C12CC3CC(CC(Cl)(C3)C1)C2 [(VIII)] | no detectable oral bioavailability whatsoever | < 1 | 0.7 | 15 |  |  |  |
|  |  |  |  |  |  | O=C1NCCCC[C@@H]1NC(=O)C12CC3CC(CC(C3)C1)C2 [Compound (II), 3-(adamantane-1-carbonylamino)-caprolactam] |  | < 1 | 0.8 | 16 | cytochrome P450-mediated hydroxylation; also recorded: rapidly converted to (V) in vivo | inhibition of bacterial lawn growth | 5 to 10 |
